# In US7696246B2 (Ligand Pharmaceuticals Incorporated, priority 1999, dated 2010):
# Read-outs that look alike come from different tables or passages of the source.
# Tests used:
# [1] = target: T1, human AR (Homo sapiens, UniProt P10275); experiment: Co-transfection assay, AR antagonist activity (CV-1 cells, in presence of DHT); assay type: cell-based; details: for IC50: read-out: AR Antagonist CV-1 Cells Potency
# T1 sequence (P10275 1-920): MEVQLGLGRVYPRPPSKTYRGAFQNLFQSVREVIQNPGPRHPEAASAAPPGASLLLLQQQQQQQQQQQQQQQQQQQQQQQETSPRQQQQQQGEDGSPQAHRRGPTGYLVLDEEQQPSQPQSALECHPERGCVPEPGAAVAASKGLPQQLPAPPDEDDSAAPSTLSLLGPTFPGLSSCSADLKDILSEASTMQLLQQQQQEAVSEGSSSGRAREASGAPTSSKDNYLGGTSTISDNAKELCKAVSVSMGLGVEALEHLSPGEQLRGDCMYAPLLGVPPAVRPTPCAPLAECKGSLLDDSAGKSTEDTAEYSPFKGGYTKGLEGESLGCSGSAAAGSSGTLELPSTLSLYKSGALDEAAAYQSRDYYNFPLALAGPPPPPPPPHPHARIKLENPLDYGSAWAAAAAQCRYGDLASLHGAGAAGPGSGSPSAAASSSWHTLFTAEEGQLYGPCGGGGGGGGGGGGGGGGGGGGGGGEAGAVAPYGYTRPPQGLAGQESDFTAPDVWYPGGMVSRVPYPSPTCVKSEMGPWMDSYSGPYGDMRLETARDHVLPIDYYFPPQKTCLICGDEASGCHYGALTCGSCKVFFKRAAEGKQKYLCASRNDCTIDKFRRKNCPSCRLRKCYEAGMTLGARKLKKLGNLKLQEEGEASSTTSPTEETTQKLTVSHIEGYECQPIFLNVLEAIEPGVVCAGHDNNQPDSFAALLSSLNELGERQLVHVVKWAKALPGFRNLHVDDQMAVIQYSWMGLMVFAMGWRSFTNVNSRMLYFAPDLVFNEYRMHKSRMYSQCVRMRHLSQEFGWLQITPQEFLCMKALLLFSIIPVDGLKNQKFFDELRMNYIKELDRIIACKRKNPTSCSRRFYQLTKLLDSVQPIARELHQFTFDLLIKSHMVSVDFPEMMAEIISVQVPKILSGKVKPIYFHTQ
# [2] = target: T1, human AR; experiment: Co-transfection assay, AR agonist activity (CV-1 cells, MTV-LUC reporter); assay type: cell-based; details: for EC50: agonist potency EC50
# [3] = target: T1, human AR; experiment: AR whole cell competitive binding assay (COS-1 cells, 3H-DHT); details: 1 nM 3H-DHT, Cheng-Prusoff
# Description: AR Binding: For the whole cell binding assay, COS-1 cells in 96-well microtiter plates containing DMEM-10% FBS were transfected as described above with the following plasmid DNA: pRShAR (2 ng/well), pRS-β-Gal (50 ng/well) and pGEM (48 ngcwell). Six hours after transfection, media was removed, the cells were washed with PBS and fresh media was added. The next day, the media was changed to DMEM-serum free to remove any endogenous ligand that might be complexed with the receptor in the cells.
# Three replicates were used for each sample. […] The remaining media was removed, the cells were washed three times with PBS to remove unbound ligand, and cells were lysed with a Triton X-100-based buffer.
# For the saturation analyses, the difference between the total binding and the nonspecific binding, normalized by the β-Gal rate, was defined as specific binding. […] The Ki values were determined by application of the Cheng-Prusoff equation to the IC50 values, where:
# After correcting for non-specific binding, IC50 values were determined. […] The IC50 value was determined graphically from a log-logit plot of the data. The Ki values were determined by application of the Cheng-Prusoff equivuation to the IC50 values, the labeled ligand concentration and the Kd of the labeled ligand.
# [4] = CV-1 cells, percent maximal inhibition, DHT at its EC50
# [5] = CV-1 cells, percent maximal response relative to reference agonist DHT
# [6] = CV-1 cells, antagonist potency IC50, DHT at its EC50
Compound,"AR Antagonist CV-1 Cells Efficacy (%) [1, 4]",IC50 [1] [nM],EC50 ([2]; CV-1 cells) [nM],Ki [3] [nM],AR Antagonist CV-1 Cells Efficacy (%) [1],"AR Agonist CV-1 Cells Efficacy (%) [2, 5] [%]",AR Agonist CV-1 Cells Efficacy (%) [2] [%],"IC50 [1, 6] [nM]"
"CCC[C@@H]1CC[C@H](CCC)N1c1ccc2[nH]c(=O)cc(C(F)(F)F)c2c1 [Compound 366, 6-(2,5-cis-Dipropyl-1-pyrrolidino)-4-trifluoromethyl-2(1H)-quinolinone]",85%,31,> 10000,> 1000,,,,
"CC(C)c1ccc2c(c1)CN(C)C(=O)N2 [Compound 721, 3,4-Dihydro-6-isopropyl-3-methyl-2(1H)-quinazolinone]",85%,32,> 10000,> 1000,,,,
"CC(C)Nc1ccc2c(C(F)(F)F)cc(=O)[nH]c2c1 [Compound 514, 7-Isopropylamino-4-trifluoromethyl-2(1H)-quinolinone]",,,,,87%,,,
"CCCNc1ccc2c(C(F)(F)F)cc(=O)[nH]c2c1 [Compound 513, 7-Propylamino-4-trifluoromethyl-2(1H)-quinolinone]",,,,,84%,,,
"Nc1cc2[nH]c(=O)cc(C(F)(F)F)c2cc1C1CCCCC1 [Compound 582, 7-Amino-6-cyclohexyl-4-trifluoromethyl-2(1H)-quinolinone]",92%,26,> 10000,43,,,,
"O=c1cc(C(F)(F)F)c2cc(N(Cc3ccccc3)Cc3ccccc3)ccc2[nH]1 [Compound 272, 6-(bis-N,N-Benzyl)amino-4-trifluoromethyl-2(1H)-quinolinone]",67%,7,> 10000,> 1000,,,,
"C=CC1CCCCN1c1ccc2[nH]c(=O)cc(C(F)(F)F)c2c1 (racemic) [Compound 444, (±)-6-(2-Vinyl-1-piperidino)-4-trifluoromethyl-2(1H)-quinolinone]","na (na = not active (i.e. efficacy of <20 and potency of >10,000))",> 10000,73,26,,83,,
"CC(C)(C)Nc1ccc2[nH]c(=O)cc(C(F)(F)F)c2c1 [Compound 307, 6-tert-Butylamino-4-trifluoromethyl-2(1H)-quinolinone]",43%,3.2,> 10000,61,,,,
"O=c1cc(C(F)(F)F)c2cc(N(CC(F)(F)F)CC(F)(F)F)ccc2o1 [Compound 474, 6-(bis-N,N-2,2,2-Trifluoroethyl)amino-4-trifluoromethylcoumarin]","na (na = not active (i.e. efficacy of <20 and potency of >10,000))",> 10000,0.6,1.8,,73,,
"O=c1cc(C(F)(F)F)c2cc(C3=CCCCC3)ccc2[nH]1 [Compound 630, 6-Cyclohexenyl-4-trifluoromethyl-2(1H)-quinolinone]",67%,13,221,109,,30,,
"CCCCN(CCCC)c1ccc2[nH]c(=O)cc(C(F)(F)F)c2c1 [Compound 220, 6-Dibutylamino-4-trifluoromethyl-2(1H)-quinolinone]",,,,,54%,,68,
"O=c1cc(C(F)(F)F)c2cc(N3CCCCC3)ccc2[nH]1 [Compound 311, 6-(1-Piperidinyl)-4-trifluoromethyl-2(1H)-quinolinone]",38%,13,143,12,,42,,
"C=CC(C)(C)Nc1ccc2c(C(F)(F)F)cc(=O)[nH]c2c1 [Compound 559, 7-(1,1-Dimethylallyl)amino-4-trifluoromethyl-2(1H)-quinolinone]",,,,,92%,,,
"CC1OC(=O)Nc2ccc(C3=CCCCC3)cc21 (racemic) [Compound 698, (±)-6-(1-Cyclohexenyl)-1,4-dihydro-4-methyl-1,3-benzo[d]oxazin-2-one]",84%,17,> 10000,32,,,,
"O=c1cc(C(F)(F)F)c2cc(C(O)(c3ccccc3)c3ccccc3)ccc2[nH]1 [Compound 659, 6-(1-Hydroxy-1,1-diphenyl)methyl-4-trifluoromethyl-2(1H)-quinolinone]",70%,44,> 10000,40,,,,
"O=c1cc(C(F)(F)F)c2cc(N(CC(F)(F)C(F)(F)F)CC(F)(F)C(F)(F)F)ccc2[nH]1 [Compound 224, 6-(bis-2,2,3,3,3-Pentafluoropropyl)amino-4-trifluoromethyl-2(1H)-quinolinone]","na (na = not active (i.e. efficacy of <20 and potency of >10,000))",> 10000,41,206,,108,,
"CC1CN(c2ccc3[nH]c(=O)cc(C(F)(F)F)c3c2)C(C(F)(F)F)O1 (racemic) [Compound 351, (±)-6-(2-Trifluoromethyl-5-cis-methyl-1-oxazolidino)-4-trifluoromethyl-2(1H)-quinolinone]","na (na = not active (i.e. efficacy of <20 and potency of >10,000))",,23,31,,79,,> 10000
"O=c1cc(C(F)(F)F)c2cc(N3CCCC[C@@H]3CCl)ccc2[nH]1 [Compound 433, (−)R-6-(2-Chloromethyl-1-piperidino)-4-trifluoromethyl-2(1H)-quinolinone]","na (na = not active (i.e. efficacy of <20 and potency of >10,000))",> 10000,6.4,1.5,,120,,
"O=c1cc(C(F)(F)F)c2cc(-c3ccccc3)ccc2[nH]1 [Compound 764, 4-Trifluoromethyl-6-phenyl-2(1H)-quinolinone]",87%,30,> 10000,16,,,,
"O=C(Nc1ccc2c(C(F)(F)F)cc(=O)[nH]c2c1)C(F)(F)F [Compound 528, 7-(Trifluoroacetamido)-4-trifluoromethyl-2(1H)-quinolinone]",59%,26,1300,,,36,,
"4-Methyl-6-(2,4-dichlorolphenyl)-2(1H)-quinolinone [Compound 762]",81%,,> 10000,,,,,63
"O=c1cc(C(F)(F)F)c2ccc(NCC(F)(F)F)cc2[nH]1 [Compound 523, 7-(N-2,2,2-Trifluoroethyl)amino-4-trifluoromethyl-2(1H)-quinolinone]",,,,,62%,,29,
"CCN(c1ccc2[nH]c(=O)cc(C(F)(F)F)c2c1)C(C)C [Compound 239, 6-(N-Ethyl-N-isopropyl)amino-4-trifluoromethyl-2(1H)-quinolinone]",,,,,"na (key: na = not active (i.e. efficacy of <20 and potency of >10,000))",,83,
"Cc1cc(=O)[nH]c2ccc(N(CC(C)C)CC(F)(F)F)cc12 [Compound 381, 6-(N-Isobutyl-N-2,2,2-trifluoroethyl)amino-4-methyl-2(1H)-quinolinone]","na (na = not active (i.e. efficacy of <20 and potency of >10,000))",,,,,72,,
"CCC(C)c1cc2c(C(F)(F)F)cc(=O)[nH]c2cc1N (centres unmarked) [Compound 581, 7-Amino-6-sec-butyl-4-trifluoromethyl-2(1H)-quinolinone]",23%,,,,,39,,
"O=c1cc(C(F)(F)F)c2ccc(NCC(F)(F)C(F)(F)F)cc2[nH]1 [Compound 520, 7-(2,2,3,3,3-Pentafluoropropyl)amino-4-trifluoromethyl-2(1H)-quinolinone]",,,,,76%,,,
"Cc1cc(=O)[nH]c2ccc(N(CC(F)(F)F)CC(F)(F)F)cc12 [Compound 377, 6-(bis-2,2,2-Trifluoroethyl)amino-4-methyl-2(1H)-quinolinone]",,,,,"na (key: na = not active (i.e. efficacy of <20 and potency of >10,000))",,89,
"CCCNc1ccc2[nH]c(=O)cc(C(F)(F)F)c2c1 [Compound 204, 6-Propylamino-4-trifluoromethyl-2(1H)-quinolinone]",,,,,72%,,34,
